From patent publication US20190314198A1, “Topical Ocular Delivery Methods and Devices for Use in the Same” (Kedalion Therapeutics, Inc., priority 2018, published 2019)

Legend:
[1] = system: eye of subjects; assay: Presbyopia: pupil diameter after self-administered pilocarpine micro-dose; format: in vivo, human
Method: A 10 μl micro-dose of a 1% pilocarpine solution was self-administered using an electromagnetic actuated fluid delivery device, e.g., as described above, by three subjects to their own eye. The age range of the subjects was 52 years to 68 years, and all subjects were male. The pilocarpine micro-dose was self-administered by the subjects.
Baseline, pre-dose values of pupil diameter and near visual acuity in both eyes prior to dosing was measured for all subjects, and then following the baseline measurements, the subjects were dosed in only one eye (the eye with the poorer visual acuity) with the micro-dose pilocarpine solution. Approximately 45 to 60 minutes after dosing, pupil diameter and near visual acuity were again tested. Near visual acuity was measured using a Snellen card at a distance of 40 cm. A tabulation of results is given below in Table A.

[2] = system: patients diagnosed with primary open angle glaucoma; assay: Trial 2: intraocular pressure reduction (Goldmann applanation tonometry), AcuStream versus standard eye dropper; format: in vivo, human
Method: Trial 2 compared the efficacy (dose volume equivalence) of 0.005% w/v latanoprost for intraocular pressure reduction when delivered via AcuStream™ (pre-trial calibration volume=9.2 μl) versus the standard eye dropper for topical drug delivery (approximate volume=30 μl).
Patients included in Trial 2 have previously been diagnosed with primary open angle glaucoma on the basis of intraocular pressure and visual field testing, fundus examination or optical coherence tomography (OCT) data and are currently on prostaglandin analog medical therapy. Patients with corneal abnormalities that would interfere with accurate IOP measurements with applanation tonometry, use of an oral or topical ophthalmic steroids within the past 14 days from screening date, any active ocular surface or anterior segment disease, or progressive field loss during the past year were excluded from the study. Thirteen men and five women participated in the trial. […]
After performing slit lamp examinations on each patient to verify eligibility and obtaining informed consent, intraocular pressure (IOP) was measured by a sole experienced examiner who was blind to the randomized conditions. […]
Latanoprost solution was administered by a sole ophthalmologist to both eyes of each patient, based on the pre-determined randomized condition.

| Compound | mean reduction in pupil diameter ([1]; dosed eye, 10 μl micro-dose of 1% solution, all 3 subjects) [mm] | miotic effect in the non-dosed eye ([1]; non-dosed contralateral eye) | difference in IOP reduction between AcuStream and standard dropper groups ([2]; Wilcoxon Ranked Sum test, p=0.3447) | post-instillation IOP of a single patient outlier (OD) ([2]; control group (standard eye dropper), baseline IOP 30 mm Hg) [mm Hg] |
| --- | --- | --- | --- | --- |
| CC[C@@H]1C(=O)OC[C@@H]1Cc1cncn1C [pilocarpine] | 0.70 | no miotic effect |  |  |
| CC(C)OC(=O)CCC/C=C\C[C@@H]1[C@@H](CC[C@@H](O)CCc2ccccc2)[C@H](O)C[C@@H]1O [latanoprost] |  |  | no statistically significant differences | 17 |
